Key:
[1] = test system: kaolin-induced edema and carrageenin-induced edema of the hind paw of the rat; experiment: Antiphlogistic (antiexudative) activity, kaolin and carrageenin edema together; assay type: in vivo, rat (male FW 49); conditions: average value from kaolin edema and carrageenin edema, per os
Procedure: The above pharmacodynamic activity of the compounds of the present invention, namely their antiphlogistic activity and their toxicity, were ascertained in the manner described below.
(§1) The compounds were tested with respect to their antiexudative effect on the kaolin-induced edema and the carrageenin-induced edema of the hind paw of the rat and with respect to their acute toxicity after oral administration to rats, in comparison with phenylbutazone, a compound with known antiphlogistic activities.
(§2) a. Kaolin-induced edema of the hind paw of the rat
(§3) The kaolin edema was induced according to the method given by Hillebrecht [Arzneimittel-Forsch. 4, 607 (1954)] by subplantary injection of 0.05 ml of a 10% suspension of kaolin in a 0.85% sodium chloride solution. Measurement of the volume of the paws was effected using the technique of Doepfner and Cerletti [Int. Arch. Allergy Immunol. 12, 89 (1958)].
(§4) Male FW 49 rats having an average weight of 120 to 150 gm were fed with the test compounds 30 minutes before inducing the edema by means of an oesophageal tube. 5 hours after the provocation of the edema the averaged values of the swelling caused in the rats treated with the test compounds were compared with values measured on control animals. By graphical extrapolation, the dose leading to a 35% reduction of the swelling (ED35) was calculated from the presentage reduction values measured by the administration of different doses.
(§5) b. Carrageenin-induced edema of the hind paw of the rat
The provocation of the carrageenin edema was effected according to the method of Winter et al [Proc. Soc. exp. […]
For the calculation of the reductive effect on the edema the values measured 3 hours after the provocation of the edema were used. […]
(§6) The therapeutical index (a measure for the therapeutic usefulness) was calculated as the quotient of the oral LD50 and of the ED35 value calculated from the anti-exudative effect (average value from the kaolin-edema and the carrageenin-edema).

in vivo = conditions: rat; for LD50 at 336 h: in vivo, po
Description: The substances were fed as a trituration in Tylose.
The calculation of the LD50 values was effected, as far as possible according to the method of Litchfield and Wilcoxon, based on the percentage of animals which died within 14 days after administration of the different doses.

[2] = test system: Kaolin-induced edema of the hind paw of the rat; experiment: Kaolin-induced edema of the hind paw of the rat (antiexudative effect); assay type: in vivo, rat (male FW 49); conditions: per os, 30 min before edema, measured 5 h after, dose for 35% reduction of swelling, by graphical extrapolation
Procedure: as §1, §2, §3, §4

[3] = Therapeutic index (LD50/ED35); conditions: in vivo; oral LD50 / average ED35, rat; read-out: Therapeutical Index, ratio between toxic and antiexudative activity LD50/ED35
Procedure: as §6

[4] = test system: Carrageenin-induced edema of the hind paw of the rat; experiment: Carrageenin-induced edema of the hind paw of the rat (antiexudative effect); assay type: in vivo, rat (male FW 49); conditions: per os, 60 min before edema, measured 3 h after, dose for 35% reduction of swelling
Procedure: as §1, §4, §5
The provocation of the carrageenin edema was effected according to the method of Winter et al [Proc. Soc. exp. Biol. Med. 111, 544 (1962)] by subplantary injection of 0.05 ml of a 1% solution of carrageenin in a 0.85% solution of sodium chloride. The test compounds were administered 60 minutes before the provocation of the edema.
For the calculation of the reductive effect on the edema the values measured 3 hours after the provocation of the edema were used. All the other details were the same as described above in the case of the kaolin-induced edema.

| SMILES | ED35 [1] [mg/kg] | LD50 at 336 h (in vivo) [mg/kg] | ED35 [2] [mg/kg] | selectivity ratio [3] | ED35 [4] [mg/kg] | animals died after application (in vivo; 2000 mgm/kg per os) |
| --- | --- | --- | --- | --- | --- | --- |
| OCCC=Cc1ccc(-c2ccccc2F)cc1 [A, 4-(2"-fluoro-4'-biphenylyl)-3-buten-1-ol] | 31.5 | 1770 | 44 | 56.2 | 19 |  |
| OCCC=Cc1ccc(-c2ccccc2)cc1 [B, 4-(4'-biphenylyl)-3-buten-1-ol] | 46 | > 2000 | 42 | > 43.5 | 50 | 0 out of 10 animals died |
| CCCCC1C(=O)N(c2ccccc2)N(c2ccccc2)C1=O [Phenylbutazone, phenylbutazone, reference compound] | 63.5 |  | 58 |  | 69 |  |

Source: patent publication US3969418A, “(4-Biphenylyl)-butenols” (Boehringer Ingelheim GmbH, priority 1972, dated 1976)
